Assay results taken from US20250122192A1, “5-PYRIMIDINECARBOXAMIDE DERIVATIVES AND METHODS OF USING THE SAME” (Rgenta Therapeutics, Inc., priority 2021, published 2025).
Structures can show the parent of a compound that is named as a salt. Where two headings read alike, the source gives them in different places.

System: PMS1
Experiment: Mini-gene reporter assay-PMS1
Assay type: cell-based
Settings: for activation at 5 µM: PMS1 mini-gene firefly luciferase reporter in HEK293 cells, read-out: PMS1% Effect at 5 μM
From the text: Biological Activity of the Compounds of the Present Disclosure Mini-gene reporter assay-PMS1
Mini-gene reporter constructs for each target site can be constructed by first PCR amplifying the region-of-interest including the sequence of the alternatively skipped, sequences of the immediate upstream and downstream introns, and sequences of the immediate upstream and downstream exons. Then the 3′end of the amplified sequence can be ligated to a firefly luciferase reporter gene and cloned into the pcDNA3.1 vector backbone. The final reporter construct can be transiently transfected into HEK293 cells using Lipofectamine 3000 transfection reagents. Compounds that can induce the inclusion of the skipped exon in the reporter construct would increase the reporter firefly luciferase activity.
Test compounds may be diluted in duplicates and dispensed into an assay plate. Transient mini-gene reporter cell line stock is resuspended and dispensed into the assay plate. Assay plates are then centrifuged and incubated. A luciferase reagent (e.g. ONE-Glo firefly luciferase reagent from Promega®) may be added to the assay plate and the luminescence (RLU) signals recorded. PMS1 EC50 values may be determined by curve fitting in Levenberg-Marquardt algorithm.

[1] = Homo sapiens, HEK293, PMS1 mini-gene firefly luciferase reporter transiently transfected into HEK293 cells, read-out: PMS1 IC50

Row | Structure (SMILES) | IC50 [1] [nM] | further results
1 | COc1nc(N(C)C2CCNCC2)ncc1C(=O)Nc1cc(F)c2nn(C)cc2c1 [Compound 281, N-(7-fluoro-2-methyl-2H-indazol-5-yl)-4-methoxy-2-(methyl(piperidin-4-yl)amino) pyrimidine-5-carboxamide formate] | – | activation at 5 µM (Homo sapiens): > 75%
2 | CCOc1nc(N2CCC(NC)C2)ncc1C(=O)Nc1ccc2nn(C)cc2c1 (stereo not drawn) [Compound 270, 4-ethoxy-N-(2-methyl-2H-indazol-5-yl)-2-(3-(methylamino)pyrrolidin-1-yl)pyrimidine-5-carboxamide hydrochloride] | < 500 | –
3 | CCOc1nc(N2CCC3CCCC(C2)N3)ncc1C(=O)Nc1cc(F)c2nc(C)cn2c1 (stereo not drawn) [Compound 126] | 1000 to 3000 | –
4 | CCOc1nc(N2CC[C@H](NC)C2)ncc1C(=O)Nc1cc(OC)c2nn(C)cc2c1 [Compound 298, (S)-4-ethoxy-N-(7-methoxy-2-methyl-2H-indazol-5-yl)-2-(3-(methylamino)pyrrolidin-1-yl)pyrimidine-5-carboxamide 4-methylbenzenesulfonate] | 1000 to 3000 | –
5 | CCOc1nc(N2CCC(CNC)CC2)ncc1C(=O)Nc1cc(F)c2nc(C)cn2c1 [Compound 216] | < 500 | –
6 | CCOc1nc(N2CC[C@@H](NC)C2)ncc1C(=O)Nc1ccc2nn(C)cc2c1 [Compound 286, (R)-4-ethoxy-N-(2-methyl-2H-indazol-5-yl)-2-(3-(methylamino)pyrrolidin-1-yl)pyrimidine-5-carboxamide formate] | 500 to 1000 | –
7 | CCOc1nc(N2C[C@@H](C)N[C@@H](C)C2)ncc1C(=O)Nc1cc(F)c2nc(C)cn2c1 [Compound 4, 2-[(3R,5S)-3,5-dimethylpiperazin-1-yl]-4-ethoxy-N-{8-fluoro-2-methylimidazo[1,2-a]pyridin-6-yl}pyrimidine-5-carboxamide hydrochloride] | – | IC50 (PMS1 mini-gene firefly luciferase reporter transiently transfected into HEK293 cells, hydrochloride, read-out: PMS1 IC50): 500 to 1000 nM
8 | CCOc1nc(N2C3CCCC2CNC3)ncc1C(=O)Nc1cc(F)c2nc(C)cn2c1 [Compound 130] | 1000 to 3000 | –
9 | CCOc1nc(N2CCN[C@@H](C)C2)ncc1C(=O)Nc1cn2cc(C)nc2c(C)n1 [Compound 19, N-{2,8-dimethylimidazo[1,2-a]pyrazin-6-yl}-4-ethoxy-2-[(3S)-3-methylpiperazin-1-yl]pyrimidine-5-carboxamide] | – | activation at 5 µM (Homo sapiens): 50 to 75%
10 | CCN(c1ncc(C(=O)Nc2cc(F)c3nn(C)cc3c2)c(OC)n1)C1CCNCC1 [Compound 284, 2-(ethyl(piperidin-4-yl)amino)-N-(7-fluoro-2-methyl-2H-indazol-5-yl)-4-methoxypyrimidine-5-carboxamide formate] | < 500 | –
11 | CCOc1nc(N2CCNC(C)C2C)ncc1C(=O)Nc1cn2cc(C)nc2c(C)n1 (stereo not drawn) [Compound 35] | > 3000 | –
12 | CCOc1nc(N2CCNCCC2C)ncc1C(=O)Nc1cc(F)c2nc(C)cn2c1 (stereo not drawn) [Compound 205] | 500 to 1000 | –
13 | CCOc1nc(N(CC)C2CCNCC2)ncc1C(=O)Nc1cc(OC)c2nc(C)cn2c1 [Compound 260, 4-ethoxy-2-(ethyl(piperidin-4-yl)amino)-N-(8-methoxy-2-methylimidazo[1,2-a]pyridin-6-yl)pyrimidine-5-carboxamide formate] | – | IC50 (Homo sapiens, HEK293, read-out: PMS1 IC50 (nM)): < 500 nM
14 | CCOc1nc(N(C)C2CCCNCC2)ncc1C(=O)Nc1cn2cc(C)nc2c(C)n1 (stereo not drawn) [Compound 46] | < 500 | –
15 | CCOc1nc(N(CC)C2CCNCC2)ncc1C(=O)Nc1ccc2nn(C)cc2c1 [Compound 272, 4-ethoxy-2-(ethyl(piperidin-4-yl)amino)-N-(2-methyl-2H-indazol-5-yl)pyrimidine-5-carboxamide formate] | 1000 to 3000 | –
16 | CCOc1nc(N2CCC(NC)C2)ncc1C(=O)Nc1cc(F)c2nn(C)cc2c1 (stereo not drawn) [Compound 263, 4-ethoxy-N-(7-fluoro-2-methyl-2H-indazol-5-yl)-2-(3-(methylamino)pyrrolidin-1-yl)pyrimidine-5-carboxamide formate] | < 500 | –

Row | Structure (SMILES) | IC50 [1] [nM] | further results
17 | CCOc1nc(N2C3CCNCC2CC3)ncc1C(=O)Nc1cc(F)c2nc(C)cn2c1 (stereo not drawn) [Compound 175] | > 3000 | –
18 | CCOc1nc(N2CC[C@H](NC)C2)ncc1C(=O)Nc1ccn2nc(C)cc2c1 [Compound 314, 4-ethoxy-2-[(3S)-3-(methylamino)pyrrolidin-1-yl]-N-2-methylpyrazolo[1,5-a]-pyridin-5-ylpyrimidine-5-carboxamide] | – | activation at 5 µM (Homo sapiens): > 75%
19 | CCOc1nc(N2CC3CNCCC32)ncc1C(=O)Nc1cn2cc(C)nc2c(C)n1 (stereo not drawn) [Compound 77] | < 500 | –
20 | CCOc1nc(N2CCC(NC)C2)ncc1C(=O)Nc1ccc2nc(C)cn2n1 (stereo not drawn) [Compound 319] | > 3000 | –
21 | CCOc1nc(N2CCC3(CCN3)CC2)ncc1C(=O)Nc1cn2cc(C)nc2c(C)n1 [Compound 64] | < 500 | –
22 | CCOc1nc(N2CC[C@H](NC)C2)ncc1C(=O)Nc1ccc2nc(C)cn2c1 [Compound 293, (S)-4-ethoxy-2-(3-(methylamino)pyrrolidin-1-yl)-N-(2-methylimidazo[1,2-a]pyridin-6-yl)pyrimidine-5-carboxamide formate] | > 3000 | –
23 | CCOc1nc(N2CCN(C3CCNCC3)CC2)ncc1C(=O)Nc1cc(F)c2nc(C)cn2c1 [Compound 137] | > 3000 | –
24 | COCc1nc(N(C)CC2CNCCO2)ncc1C(=O)Nc1cc(F)c2nc(C)cn2c1 (stereo not drawn) [Compound 189] | > 3000 | –
25 | CCOc1nc(N2CC(NC)C2)ncc1C(=O)Nc1ccc2nn(C)cc2c1 [Compound 255, 4-ethoxy-N-(2-methyl-2H-indazol-5-yl)-2-(3-(methylamino)azetidin-1-yl)pyrimidine-5-carboxamide] | > 3000 | –
26 | CCOc1nc(N2CCN[C@H](C)C2)ncc1C(=O)Nc1cc(F)c2nn(C)cc2c1 [Compound 264, (R)-4-ethoxy-N-(7-fluoro-2-methyl-2H-indazol-5-yl)-2-(3-methylpiperazin-1-yl)pyrimidine-5-carboxamide formic acid] | 1000 to 3000 | –
27 | CCOc1nc(N2CC[C@H](N(C)C)C2)ncc1C(=O)Nc1cc(F)c2nn(C)cc2c1 [Compound 291, (S)-2-(3-(dimethylamino)pyrrolidin-1-yl)-4-ethoxy-N-(7-fluoro-2-methyl-2H-indazol-5-yl)pyrimidine-5-carboxamide formate] | > 3000 | –
28 | CCOc1nc(N2CCC(CNC)C2)ncc1C(=O)Nc1cn2cc(C)nc2c(C)n1 (stereo not drawn) [Compound 62] | < 500 | –
29 | CCOc1nc(N(C)C2CCNC2)ncc1C(=O)Nc1cn2cc(C)nc2c(C)n1 (stereo not drawn) [Compound 81] | 1000 to 3000 | –
30 | CCOc1nc(N2CCNCC3(CC3)C2)ncc1C(=O)Nc1cn2cc(C)nc2c(C)n1 [Compound 92] | 1000 to 3000 | –
31 | CCOc1nc(N2CC[C@@H](NC)C2)ncc1C(=O)Nc1cc(OC)c2nn(C)cc2c1 [Compound 295, (R)-4-ethoxy-N-(7-methoxy-2-methyl-2H-indazol-5-yl)-2-(3-(methylamino)pyrrolidin-1-yl)pyrimidine-5-carboxamide 4-methylbenzenesulfonate] | 500 to 1000 | –
32 | CCOc1nc(N2CC[C@@H]3NCC[C@@H]3C2)ncc1C(=O)Nc1cn2cc(C)nc2c(C)n1 (racemic) [Compound 90] | 1000 to 3000 | –

Second part, led by results:

Row | IC50 [1] [nM] | Structure (SMILES) | further results
33 | 1000 to 3000 | CCOc1nc(N2CCN3CCCC3C2)ncc1C(=O)Nc1cc(F)c2nc(C)cn2c1 (stereo not drawn) [Compound 5, 4-ethoxy-N-{8-fluoro-2-methylimidazo[1,2-a]pyridin-6-yl}-2-{octahydropyrrolo[1,2-a]pyrazin-2-yl}pyrimidine-5-carboxamide] | –
34 | 500 to 1000 | CCOc1nc(N2CCCC(C3CCNC3)C2)ncc1C(=O)Nc1cc(F)c2nc(C)cn2c1 (stereo not drawn) [Compound 108] | –
35 | < 500 | CCOc1nc(N2CC(C)NCC2C)ncc1C(=O)Nc1cc(F)c2nc(C)cn2c1 (stereo not drawn) [Compound 230] | –
36 | 1000 to 3000 | CCOc1nc(N2CCNCC(CO)C2)ncc1C(=O)Nc1cc(F)c2nc(C)cn2c1 (stereo not drawn) [Compound 109] | –
37 | 500 to 1000 | CCOc1nc(N2C[C@@H]3C[C@H]2CN3)ncc1C(=O)Nc1cc(F)c2nc(C)cn2c1 [Compound 233] | –
38 | 1000 to 3000 | CCOc1nc(N2CCN(C3CCNC3)CC2)ncc1C(=O)Nc1cc(F)c2nc(C)cn2c1 (stereo not drawn) [Compound 224] | –
39 | 1000 to 3000 | CCOc1nc(N2CC[C@@H](N(C)C)C2)ncc1C(=O)Nc1cc(F)c2nc(C)cn2c1 [Compound 290, (R)-2-(3-(dimethylamino)pyrrolidin-1-yl)-4-ethoxy-N-(8-fluoro-2-methylimidazo[1,2-a]pyridin-6-yl)pyrimidine-5-carboxamide 4-methylbenzenesulfonate] | –
40 | 1000 to 3000 | CCOc1nc(N2CC3CNC(C3)C2)ncc1C(=O)Nc1cc(F)c2nc(C)cn2c1 (stereo not drawn) [Compound 134] | –
41 | 500 to 1000 | CCNC1CN(c2ncc(C(=O)Nc3cc(F)c4nc(C)cn4c3)c(OCC)n2)C1 [Compound 202] | –
42 | < 500 | CCOc1nc(N2CCC(NC)C2)ncc1C(=O)Nc1cc(F)c2nc(C)cn2c1 (stereo not drawn) [Compound 229] | –
43 | 1000 to 3000 | CCOc1nc(N2CCC(N(C)C)C2)ncc1C(=O)Nc1cc(F)c2nc(C)cn2c1 (stereo not drawn) [Compound 269, 2-(3-(dimethylamino)pyrrolidin-1-yl)-4-ethoxy-N-(8-fluoro-2-methylimidazo[1,2-a]pyridin-6-yl)pyrimidine-5-carboxamide] | –
44 | 500 to 1000 | CCOc1nc(N2CC3C4CCC(NC4)C3C2)ncc1C(=O)Nc1cc(F)c2nc(C)cn2c1 (stereo not drawn) [Compound 125] | –
45 | < 500 | CCOc1nc(N2CC[C@H](NC)C2)ncc1C(=O)Nc1cc(F)c2nc(C)cn2c1 (single isomer, unassigned) [Compound 312, hydrochloride] | –
